The numbers were not newly measured in publication PMC10795913 (The Journal of Clinical Endocrinology and Metabolism, 2023), which cites them from elsewhere.

The test system of the data set is patients. The following applies: different assays, not directly comparable; cited from earlier work.

Take lixisenatide: the “ADA incidence in published studies” value is “up to 71.2%”. dulaglutide: the “ADA incidence in published studies” value is “up to 4.1%”. As to semaglutide, the “ADA incidence in published studies” value is “up to 4.3%”.
